Literature values, collected in patent US7771758B2, “Extract of mad-dog skullcap” (Tom's of Maine, priority 2002, dated 2010).

Legend:
[1] = tested on: benzodiazepine site of the GABAA receptor; details: in vitro; flavones isolated from Scutellaria baicalensis
[2] = tested on: intestinal bacteria

| SMILES | intestinal absorption (in vivo) | conjugation in the plasma (plasma) | ability to bind to the benzodiazepine site of the GABAA receptor [1] | transformation by intestinal bacteria [2] |
| --- | --- | --- | --- | --- |
| O=c1cc(-c2ccccc2)oc2cc(O)c(O)c(O)c12 [Baicalein, baicalein] | readily absorbed intestinally | efficiently conjugated back to baicalin | weak ligands | – |
| O=C(O)[C@H]1O[C@@H](Oc2cc3oc(-c4ccccc4)cc(=O)c3c(O)c2O)[C@H](O)[C@@H](O)[C@@H]1O [baicalin] | – | – | weak ligands | transformed to its aglycon baicalein |
| COc1c(O)cc2oc(-c3ccccc3)cc(=O)c2c1O [oroxylin A] | – | – | strong affinity | – |
| COc1c(O)cc(O)c2c(=O)cc(-c3ccccc3)oc12 [wogonin] | – | – | strong affinity | – |
